Patent US10800791B2, “Triazole ACC inhibitors and uses thereof” (Gilead Apollo, LLC, priority 2015, dated 2020)
In brackets after ≈: the same amount, converted by molar mass. Read-outs that look alike come from different tables or passages of the source.

Assays:
C. parapsilosis = experiment: Antifungal Activity Assay (broth microtiter MIC), C. parapsilosis; assay type: cell-based, Candida parapsilosis; settings: Lodderomyces parapsilosis, ATCC22019, 48 h
In short: (§1)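 MIC read by eye at 48 h, comparing challenged wells with the growth control. Yeasts grown overnight on Sabouraud dextrose agar at 35° C, suspended in RPMI 1640+MOPS and added at 2.5×10^3 CFU/mL final, following CLSI M27-A3.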

human (hACC2) = human (hACC2) (Homo sapiens, UniProt O00763); experiment: In vitro ACC inhibition assay (ADP-Glo), hACC2; assay type: biochemical; settings: Table 2b, additional results, 5 nM ACC2, 20 μM ATP, 20 μM acetyl-CoA
Chain of human (hACC2) (O00763 whole entry): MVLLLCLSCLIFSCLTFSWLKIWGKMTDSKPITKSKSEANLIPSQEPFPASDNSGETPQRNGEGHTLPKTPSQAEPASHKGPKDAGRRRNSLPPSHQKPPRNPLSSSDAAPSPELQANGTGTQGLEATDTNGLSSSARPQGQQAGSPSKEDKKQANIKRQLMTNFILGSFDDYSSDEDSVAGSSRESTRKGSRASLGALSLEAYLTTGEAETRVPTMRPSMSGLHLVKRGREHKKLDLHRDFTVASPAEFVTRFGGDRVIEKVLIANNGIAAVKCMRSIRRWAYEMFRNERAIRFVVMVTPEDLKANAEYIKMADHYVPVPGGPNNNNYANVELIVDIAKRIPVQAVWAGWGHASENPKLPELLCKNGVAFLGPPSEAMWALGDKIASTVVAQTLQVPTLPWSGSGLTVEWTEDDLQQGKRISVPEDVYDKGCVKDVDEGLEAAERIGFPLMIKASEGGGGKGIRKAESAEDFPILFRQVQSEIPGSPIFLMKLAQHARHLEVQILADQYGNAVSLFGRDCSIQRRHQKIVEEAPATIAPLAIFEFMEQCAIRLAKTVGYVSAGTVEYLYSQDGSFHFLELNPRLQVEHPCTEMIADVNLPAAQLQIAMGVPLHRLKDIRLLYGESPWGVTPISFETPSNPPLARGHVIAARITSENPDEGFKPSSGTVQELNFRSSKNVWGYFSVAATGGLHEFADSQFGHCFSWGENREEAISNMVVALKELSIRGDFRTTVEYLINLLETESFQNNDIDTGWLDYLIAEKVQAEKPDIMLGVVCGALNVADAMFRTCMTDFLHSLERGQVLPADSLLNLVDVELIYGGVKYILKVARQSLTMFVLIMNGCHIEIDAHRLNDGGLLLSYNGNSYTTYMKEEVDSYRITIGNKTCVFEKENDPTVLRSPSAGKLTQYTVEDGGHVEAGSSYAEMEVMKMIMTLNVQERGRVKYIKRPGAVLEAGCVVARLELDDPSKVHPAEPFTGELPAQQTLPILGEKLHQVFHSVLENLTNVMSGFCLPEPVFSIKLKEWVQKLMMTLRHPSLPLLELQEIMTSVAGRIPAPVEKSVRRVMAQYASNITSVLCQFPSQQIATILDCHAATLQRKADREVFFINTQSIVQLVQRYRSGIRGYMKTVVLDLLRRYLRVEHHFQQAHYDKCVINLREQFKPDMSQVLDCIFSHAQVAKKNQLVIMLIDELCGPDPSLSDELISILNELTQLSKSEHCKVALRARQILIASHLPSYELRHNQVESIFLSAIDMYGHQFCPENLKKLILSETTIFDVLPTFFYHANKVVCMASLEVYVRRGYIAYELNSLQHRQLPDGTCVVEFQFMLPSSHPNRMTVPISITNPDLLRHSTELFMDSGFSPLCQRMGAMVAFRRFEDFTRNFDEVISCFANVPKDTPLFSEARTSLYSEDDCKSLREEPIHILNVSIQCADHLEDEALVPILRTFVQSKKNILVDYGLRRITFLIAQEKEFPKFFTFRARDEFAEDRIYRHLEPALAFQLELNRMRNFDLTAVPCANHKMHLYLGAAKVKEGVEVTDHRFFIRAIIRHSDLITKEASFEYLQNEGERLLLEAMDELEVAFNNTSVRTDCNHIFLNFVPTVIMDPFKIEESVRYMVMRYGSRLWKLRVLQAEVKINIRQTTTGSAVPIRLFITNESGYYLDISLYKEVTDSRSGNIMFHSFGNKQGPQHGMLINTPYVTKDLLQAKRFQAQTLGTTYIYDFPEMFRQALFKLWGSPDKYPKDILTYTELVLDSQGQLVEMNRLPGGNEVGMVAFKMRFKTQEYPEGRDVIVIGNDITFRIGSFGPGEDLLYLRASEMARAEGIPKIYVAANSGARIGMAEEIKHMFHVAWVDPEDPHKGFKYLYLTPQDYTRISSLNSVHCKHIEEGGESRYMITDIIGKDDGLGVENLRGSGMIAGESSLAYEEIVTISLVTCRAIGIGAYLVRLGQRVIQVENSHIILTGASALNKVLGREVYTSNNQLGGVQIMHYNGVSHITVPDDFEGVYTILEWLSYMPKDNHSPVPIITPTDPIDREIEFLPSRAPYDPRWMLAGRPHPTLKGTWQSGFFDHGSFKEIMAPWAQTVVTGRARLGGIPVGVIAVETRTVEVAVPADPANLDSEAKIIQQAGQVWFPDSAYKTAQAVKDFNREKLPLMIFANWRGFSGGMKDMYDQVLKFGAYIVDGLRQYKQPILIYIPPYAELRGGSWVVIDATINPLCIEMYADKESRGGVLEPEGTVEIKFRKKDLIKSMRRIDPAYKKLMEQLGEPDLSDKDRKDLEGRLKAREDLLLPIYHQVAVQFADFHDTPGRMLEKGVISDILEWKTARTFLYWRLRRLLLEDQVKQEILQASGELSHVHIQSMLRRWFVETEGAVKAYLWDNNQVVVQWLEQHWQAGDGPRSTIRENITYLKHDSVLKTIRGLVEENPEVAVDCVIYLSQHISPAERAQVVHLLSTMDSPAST
Procedure: The detailed procedure is as follows. […] 10 μL ADP glo reagent was added. […] 20 μL kinase detection reagent was added.

C. albicans = experiment: Antifungal Activity Assay (broth microtiter MIC), C. albicans; assay type: cell-based, Candida albicans; settings: Candida albicans, ATCC90028, 48 h
In short: as §1

C. krusei = experiment: Antifungal Activity Assay (broth microtiter MIC), C. krusei; assay type: cell-based, Candida krusei; settings: Pichia kudriavzevii, ATCC6258, 48 h
In short: as §1

fungal (fACC2) = fungal (fACC2) (UniProt Q00955); settings: read-out: fACC2 (in vitro ACC2 Inhibition Assay, IC50); Table 2b, additional results; ADP-Glo, 5 nM ACC2, 20 μM ATP, 20 μM acetyl-CoA
Chain of fungal (fACC2) (Q00955 whole entry): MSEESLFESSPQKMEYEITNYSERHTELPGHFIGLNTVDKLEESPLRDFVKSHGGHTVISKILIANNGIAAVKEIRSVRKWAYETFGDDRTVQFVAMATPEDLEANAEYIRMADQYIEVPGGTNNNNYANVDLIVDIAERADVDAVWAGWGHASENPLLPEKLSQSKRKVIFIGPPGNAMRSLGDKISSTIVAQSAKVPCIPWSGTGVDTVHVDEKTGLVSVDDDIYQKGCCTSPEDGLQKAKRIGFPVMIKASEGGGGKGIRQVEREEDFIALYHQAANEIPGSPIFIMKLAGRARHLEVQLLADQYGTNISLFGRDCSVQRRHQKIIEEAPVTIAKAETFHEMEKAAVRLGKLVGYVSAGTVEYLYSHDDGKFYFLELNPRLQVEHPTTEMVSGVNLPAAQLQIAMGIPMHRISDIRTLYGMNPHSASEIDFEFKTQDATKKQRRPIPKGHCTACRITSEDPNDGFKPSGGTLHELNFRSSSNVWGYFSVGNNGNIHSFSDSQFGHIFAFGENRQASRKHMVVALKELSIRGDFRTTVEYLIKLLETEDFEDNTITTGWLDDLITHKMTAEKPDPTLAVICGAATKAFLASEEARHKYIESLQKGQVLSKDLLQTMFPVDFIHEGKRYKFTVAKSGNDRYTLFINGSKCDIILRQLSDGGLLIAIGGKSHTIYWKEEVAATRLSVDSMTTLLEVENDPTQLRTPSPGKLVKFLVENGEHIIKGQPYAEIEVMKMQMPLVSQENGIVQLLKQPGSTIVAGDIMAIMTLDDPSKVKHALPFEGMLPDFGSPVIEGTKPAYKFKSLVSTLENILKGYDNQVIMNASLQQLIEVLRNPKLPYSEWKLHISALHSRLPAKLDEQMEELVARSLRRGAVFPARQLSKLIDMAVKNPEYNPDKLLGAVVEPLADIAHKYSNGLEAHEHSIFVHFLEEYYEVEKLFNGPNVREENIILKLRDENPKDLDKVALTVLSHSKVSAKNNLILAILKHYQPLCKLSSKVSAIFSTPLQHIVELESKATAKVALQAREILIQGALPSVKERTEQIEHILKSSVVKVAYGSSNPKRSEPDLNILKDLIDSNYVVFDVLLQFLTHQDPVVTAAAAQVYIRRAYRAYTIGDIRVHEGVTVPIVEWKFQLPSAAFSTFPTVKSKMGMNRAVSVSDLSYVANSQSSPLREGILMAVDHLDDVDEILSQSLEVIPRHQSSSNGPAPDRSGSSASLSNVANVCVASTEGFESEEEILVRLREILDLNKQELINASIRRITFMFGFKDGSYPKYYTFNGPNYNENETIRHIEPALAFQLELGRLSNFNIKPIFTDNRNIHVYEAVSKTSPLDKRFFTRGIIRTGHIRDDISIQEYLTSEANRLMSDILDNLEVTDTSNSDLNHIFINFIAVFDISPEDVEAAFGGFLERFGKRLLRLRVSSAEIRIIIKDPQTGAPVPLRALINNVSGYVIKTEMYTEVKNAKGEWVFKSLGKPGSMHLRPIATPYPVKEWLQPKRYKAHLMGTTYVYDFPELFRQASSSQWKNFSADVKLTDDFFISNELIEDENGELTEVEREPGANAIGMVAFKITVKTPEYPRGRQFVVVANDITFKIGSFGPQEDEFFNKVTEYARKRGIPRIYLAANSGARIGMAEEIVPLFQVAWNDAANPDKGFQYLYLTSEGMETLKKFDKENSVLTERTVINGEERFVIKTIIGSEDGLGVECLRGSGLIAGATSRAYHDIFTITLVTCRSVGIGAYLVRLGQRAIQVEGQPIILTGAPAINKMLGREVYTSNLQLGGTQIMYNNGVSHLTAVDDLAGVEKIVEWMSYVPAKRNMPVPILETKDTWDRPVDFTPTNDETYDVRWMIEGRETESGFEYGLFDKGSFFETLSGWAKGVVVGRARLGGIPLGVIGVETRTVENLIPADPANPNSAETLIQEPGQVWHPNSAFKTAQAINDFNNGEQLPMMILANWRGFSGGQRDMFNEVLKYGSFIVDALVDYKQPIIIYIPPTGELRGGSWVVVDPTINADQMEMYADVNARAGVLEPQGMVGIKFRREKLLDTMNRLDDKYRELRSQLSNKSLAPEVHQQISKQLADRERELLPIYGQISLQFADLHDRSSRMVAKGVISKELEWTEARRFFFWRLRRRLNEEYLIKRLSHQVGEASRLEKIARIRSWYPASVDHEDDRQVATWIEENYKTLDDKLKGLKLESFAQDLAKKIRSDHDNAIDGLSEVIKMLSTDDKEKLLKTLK

[1] = Table 3b (additional results), ATCC 22019, 3 replicates, MIC recorded at 48 h, read-out: MIC, C. parapsilosis ATCC 22019
[2] = Table 3b (additional results), ATCC 90028, 3 replicates, MIC recorded at 48 h, read-out: MIC, C. albicans ATCC 90028
[3] = Table 3b (additional results), ATCC 6258, 3 replicates, MIC recorded at 48 h, read-out: MIC, C. krusei ATCC 6258
[4] = read-out: MIC, C. parapsilosis ATCC 22019, Table 3b (additional results), 3 replicates, MIC recorded at 48 h
[5] = read-out: MIC, C. albicans ATCC 90028, Table 3b (additional results), 3 replicates, MIC recorded at 48 h
[6] = read-out: MIC, C. krusei ATCC 6258, Table 3b (additional results), 3 replicates, MIC recorded at 48 h

Structure (SMILES)	MIC (C. parapsilosis; [1]) [µg/mL]	IC50 (human (hACC2)) [nM]	MIC (C. albicans; [2]) [µg/mL]	MIC (C. krusei; [3]) [µg/mL]	IC50 (fungal (fACC2)) [nM]	MIC (C. parapsilosis; [4]) [µg/mL]	MIC (C. albicans; [5]) [µg/mL]	MIC (C. krusei; [6]) [µg/mL]
COc1ccc(Cl)cc1[C@H](Cn1c(=O)n(C(C)(C)C(=O)NC2CCC2)c(=O)c2c(C)c(-n3nccn3)sc21)OC1CCOCC1 [Compound I-228]	0.25 to 1 (≈ 0.38 to 1.52 µM)	5 to 10	0.25 to 1 (≈ 0.38 to 1.52 µM)	0.06 to 0.249 (≈ 0.0913 to 0.379 µM)	1 to 5			
CCc1ccc(F)cc1[C@H](Cn1c(=O)n(C(C)(C)C(=O)NC2CCC2)c(=O)c2c(C)c(-n3nccn3)sc21)OC1CCOCC1 [Compound I-232]	1.01 to 2 (≈ 1.58 to 3.13 µM)	5 to 10	2.01 to 4 (≈ 3.15 to 6.26 µM)	1.01 to 2 (≈ 1.58 to 3.13 µM)	1 to 5			
COc1ccc(F)cc1[C@H](Cn1c(=O)n(C(C)(C)C(=O)NC(C)C)c(=O)c2c(C)c(-n3nccn3)sc21)O[C@H]1C[C@@H](OCc2ccccc2)C1 [Compound I-233]	0.25 to 1 (≈ 0.355 to 1.42 µM)	10 to 40	0.25 to 1 (≈ 0.355 to 1.42 µM)	0.25 to 1 (≈ 0.355 to 1.42 µM)	1 to 5			
Cc1c(-n2nccn2)sc2c1c(=O)n(C(C)(C)C(=O)NC(C)C)c(=O)n2C[C@H](OCCO)c1cc(F)ccc1OCc1ccccc1 [Compound I-237]	1.01 to 2 (≈ 1.52 to 3.01 µM)	10 to 40	1.01 to 2 (≈ 1.52 to 3.01 µM)	1.01 to 2 (≈ 1.52 to 3.01 µM)	1 to 5			
CCc1ccccc1[C@H](Cn1c(=O)n(C(C)(C)C(=O)NC(C)C)c(=O)c2c(C)c(-n3nccn3)sc21)O[C@H]1CC[C@@H](C#N)CC1 [Compound I-242]		1 to 5			1 to 5	1.01 to 2 (≈ 1.6 to 3.17 µM)	1.01 to 2 (≈ 1.6 to 3.17 µM)	1.01 to 2 (≈ 1.6 to 3.17 µM)
CCc1ccc(F)cc1[C@H](Cn1c(=O)n(C(C)(C)C(=O)NC(C)C)c(=O)c2c(C)c(-n3nccn3)sc21)OC[C@H](C)C#N [Compound I-243]	2.01 to 4 (≈ 3.3 to 6.56 µM)	> 40	2.01 to 4 (≈ 3.3 to 6.56 µM)	> 4.01	1 to 5			
CCc1ccc(F)cc1[C@H](Cn1c(=O)n(C(C)(C)C(=O)NC(C)C)c(=O)c2c(C)c(-n3nccn3)sc21)OC[C@@H](C)C#N [Compound I-244]	2.01 to 4 (≈ 3.3 to 6.56 µM)	> 40	2.01 to 4 (≈ 3.3 to 6.56 µM)	> 4.01	1 to 5			
Cc1c(-n2nccn2)sc2c1c(=O)n(C(C)(C)C(=O)NC(C)C)c(=O)n2C[C@H](OCCC#N)c1cc(F)ccc1OCc1ccccc1 [Compound I-249]	1.01 to 2 (≈ 1.5 to 2.97 µM)	5 to 10	2.01 to 4 (≈ 2.98 to 5.94 µM)	2.01 to 4 (≈ 2.98 to 5.94 µM)	0.3 to 1			
COc1ccc(F)cc1[C@H](Cn1c(=O)n(C(C)(C)C(=O)NC(C)C)c(=O)c2c(C)c(-n3nccn3)sc21)OCCOC(=O)C(C)C [Compound I-250]	0.25 to 1 (≈ 0.38 to 1.52 µM)	5 to 10	1.01 to 2 (≈ 1.53 to 3.04 µM)	0.25 to 1 (≈ 0.38 to 1.52 µM)	1 to 5			
COc1ccc(F)cc1[C@@H](Cn1c(=O)n(C(C)(C)C(=O)NC(C)C)c(=O)c2c(C)c(-n3nccn3)sc21)OC(=O)CO [Compound I-261]	1.01 to 2 (≈ 1.68 to 3.32 µM)	5 to 10	0.25 to 1 (≈ 0.415 to 1.66 µM)	0.06 to 0.249 (≈ 0.0996 to 0.413 µM)	0.3 to 1			
COc1ccc(F)cc1[C@@H](Cn1c(=O)n(C(C)(C)C(=O)NC(C)C)c(=O)c2c(C)c(-n3nccn3)sc21)OC(=O)C(C)(C)O [Compound I-263]		10 to 40			0.3 to 1	1.01 to 2 (≈ 1.6 to 3.17 µM)	0.25 to 1 (≈ 0.396 to 1.59 µM)	0.25 to 1 (≈ 0.396 to 1.59 µM)
CCOC(=O)[C@H]1CC[C@@H](O[C@@H](Cn2c(=O)n(C(C)(C)C(=O)NC(C)C)c(=O)c3c(C)c(-n4nccn4)sc32)c2cc(F)ccc2OC)CC1 [Compound I-264]	0.25 to 1 (≈ 0.358 to 1.43 µM)	10 to 40	0.25 to 1 (≈ 0.358 to 1.43 µM)	0.06 to 0.249 (≈ 0.0859 to 0.356 µM)	1 to 5			
COc1ccc(F)cc1[C@H](Cn1c(=O)n(C(C)(C)C(=O)NC(C)C)c(=O)c2c(C)c(-n3nccn3)sc21)O[C@H]1CC[C@@H](C(=O)O)CC1 [Compound I-265]	0.25 to 1 (≈ 0.373 to 1.49 µM)	10 to 40	0.25 to 1 (≈ 0.373 to 1.49 µM)	0.06 to 0.249 (≈ 0.0895 to 0.371 µM)	1 to 5			
CCOC(=O)[C@H]1CC[C@H](O[C@@H](Cn2c(=O)n(C(C)(C)C(=O)NC(C)C)c(=O)c3c(C)c(-n4nccn4)sc32)c2cc(F)ccc2OC)CC1 [Compound I-269]	0.25 to 1 (≈ 0.358 to 1.43 µM)	> 40	0.25 to 1 (≈ 0.358 to 1.43 µM)	0.06 to 0.249 (≈ 0.0859 to 0.356 µM)	1 to 5			
COc1ccc(F)cc1[C@H](Cn1c(=O)n(C(C)(C)C(=O)NC(C)C)c(=O)c2c(C)c(-n3nccn3)sc21)O[C@H]1CC[C@H](C(=O)O)CC1 [Compound I-270]	0.25 to 1 (≈ 0.373 to 1.49 µM)	10 to 40	0.25 to 1 (≈ 0.373 to 1.49 µM)	0.06 to 0.249 (≈ 0.0895 to 0.371 µM)	0.3 to 1			
